We go through five compounds from US12408666B2, “Pyridyloxy carboxylate derivative, preparation method therefor, herbicidal composition and use thereof” (priority 2018, dated 2025).

Series [1] has as its system Indica rice. As to the kind of experiment: Post-emergence test, crop safety (Table 4). The format is in vivo. As to conditions: 3 weeks after treatment. How it is done: (§1) Post-emergence test experiment: Monocotyledonous and dicotyledonous weed seeds and main crop seeds (i. e. wheat, corn, rice, soybean, cotton, oilseed, millet and sorghum.) were put into a plastic pot loaded with soil. Then covered with 0.5-2 cm soil, the seeds were allowed to grow in good greenhouse environment. The test plants were treated at 2-3 leaf stage 2 weeks after sowing. The test compounds of the invention were dissolved with acetone respectively, then added with tween-80, and using 1.5 liters per hectare of an emulsible concentrate of methyl oleate as a synergist, and diluted by certain amount of water to certain concentration. The solution was sprayed to the plants with a sprayer. Then the plants were cultured for 3 weeks in the greenhouse, and the experiment result of weed controlling effect after 3 weeks was listed in tables 3-4.
(§2) […] Echinochloa crusgalli and Cyperus iria were collected from Hunan province of China, and were resistant to ALS inhibitor herbicides.

Series [2] relates to Japonica rice. As to the kind of experiment: Post-emergence test, crop safety (Table 4). The format is in vivo. As to conditions: 3 weeks after treatment. As for the experimental part: as §1, §2
Series [3] deals with Cyperus iria. As to the kind of experiment: Post-emergence test, ALS-resistant weed (Table 4). The class given is in vivo. As to conditions: 504 h, 3 weeks, resistant to ALS inhibitor herbicides, read-out: Cyperus iria, activity level (growth inhibition rate). As for the experimental part: as §1
(§3) Note: the application dose was active ingredient 600 g/ha, plus water 450 kg/ha. Echinochloa crusgalli and Cyperus iria were collected from Hunan province of China, and were resistant to ALS inhibitor herbicides.

Series [4] relates to Echinochloa crusgalli. As to the kind of experiment: Post-emergence test, ALS-resistant weed (Table 4). As to conditions: Echinochloa crus-galli, 504 h, 3 weeks, resistant to ALS inhibitor herbicides, read-out: Echinochloa crusgalli, activity level (growth inhibition rate). The class given is in vivo. As for the experimental part:
as §1, §3

Series [5] concerns rice. As to conditions: known compound; cited from earlier work.
In series [6] the test system is Echinochloa crusgalli, Digitaria sanguinalis, Leptochloa chinensis and Setaria viridis. As to conditions: commercial product; cited from earlier work.
The test system of series [7] is Soybean. As to the kind of experiment: Spray drift test by unmanned gyroplane, neighbouring soybean field. The class given is in vivo. As to conditions: 600 g/ha applied by unmanned gyroplane, soybean field at 10 meters, gentle breeze. As for the experimental part: Broadleaf crops are very sensitive to hormonal herbicides, therefore crop injuries are more likely to occur in case of spray drifting. Tests were conducted in gentle breeze for the compounds of the present invention. The formulation of the compounds of the present invention was applied by DJI unmanned gyroplane with application height of 1 m and water volume of 20 kg/ha. The use rate was 600 g/ha. The active ingredient was dissolved by acetone and diluted to aqueous solution of Tween 80. There's a soybean field at 10 meters from the application area and the height of soybean plants were about 15 cm at the application time.

For series [8], the system named is Monochoria vaginalis. As to the kind of experiment: Weed control effect evaluation in rice field. The class given is in vivo. As to conditions: paddy pot, 50 g/ha, 14 days after treatment, resistant to pyrazosulfuron-ethyl and penoxsulam. As for the experimental part: Rice field soil was loaded into a 1/1,000,000 ha pot. The seeds of Monochoria vaginalis were sowed and gently covered with soil, then left to stand still in greenhouse in the state of 0.5-1 cm of water storage. It was kept at 3-4 cm of water storage thereafter. The weeds were treated by dripping the WP or SC water diluents prepared according to the common preparation method of the compounds of the present invention with pipette homogeneously to achieve specified effective amount when Monochoria vaginalis reached 0.5 leaf stage.
The fertility condition of Monochoria vaginalis 14 days and rice 21 days after the treatment of the compound of the invention with the naked eye.
Note: The seeds of Monochoria vaginalis were collected from Heilongjing Province of China.

As a reminder, the inhibition is the drop in the measured response relative to a control, in per cent. In the case of `COc1cc(OC)nc(Oc2cccc(Oc3nc(OC)cc(OC)n3)c2C(=O)O)n1` [Bispyribac-sodium], the “Indica rice, activity level (growth inhibition rate)” value in series [1] (100 g/ha) is 2 (Level 2: the growth inhibition rate is equal to or greater than 20% and less than 40%). Further, the “Japonica rice, activity level (growth inhibition rate)” value in series [2] (100 g/ha) was 4 (Level 4: the growth inhibition rate is equal to or greater than 60% and less than 85%). Besides, the results for the inhibition at 100 g/ha in series [3] (100 g/ha) and in series [4] (100 g/ha) were 20 to 40% and 5 to 20%, respectively.
As to `CC(Oc1nc(F)c(Cl)c(N)c1Cl)C(=O)O` (centres unmarked) [Control compound A], the “Indica rice, activity level (growth inhibition rate)” value in series [1] (300 g/ha) is 3 (Level 3: the growth inhibition rate is equal to or greater than 40% and less than 60%); in series [1] (600 g/ha), 3 (Level 3: the growth inhibition rate is equal to or greater than 40% and less than 60%). In addition, the “Japonica rice, activity level (growth inhibition rate)” value is 2 (Level 2: the growth inhibition rate is equal to or greater than 20% and less than 40%) in series [2] (300 g/ha); 3 (Level 3: the growth inhibition rate is equal to or greater than 40% and less than 60%) in series [2] (600 g/ha). Besides, the inhibition at 300 g/ha in series [3] (300 g/ha) and in series [4] (300 g/ha) was 60 to 85% in each case. Besides, the inhibition at 600 g/ha in series [3] and in series [4] was over 85% throughout. Besides, in series [5], the Safety and selectivity result was “poor safety and low selectivity”.
With `CCCCOCC(C)OC(=O)COc1nc(F)c(Cl)c(N)c1Cl` (centres unmarked) [Control compound B], the “Indica rice, activity level (growth inhibition rate)” value in series [1] (600 g/ha) is 2 (Level 2: the growth inhibition rate is equal to or greater than 20% and less than 40%). Further, the “Japonica rice, activity level (growth inhibition rate)” value in series [2] (600 g/ha) was 2 (Level 2: the growth inhibition rate is equal to or greater than 20% and less than 40%). Moreover, the figures for the inhibition at 600 g/ha in series [3] and in series [4] were 40 to 60% and 20 to 40%, respectively. The “Efficacy on key grasses in rice” value in series [6] is “very poor”.
As to `CCOC(=O)C(C)Oc1nc(F)c(Cl)c(N)c1Cl` (centres unmarked) [Control compound C], the “Soybean, injury level from spray drift” value in series [7] was 3 (Level 3: the growth inhibition rate is equal to or greater than 40% and less than 60%).
As to `COc1cnc(OC)n2nc(NS(=O)(=O)c3c(OCC(F)F)cccc3C(F)(F)F)nc12` [Penoxsulam], the “Monochoria Vaginalis, activity level” value in series [8] was 1 (Level 1: the growth inhibition rate is equal to or greater than 5% and less than 20%).
